Data on three compounds can be found in patent US20220387342A1, “TRANSDERMAL PATCH” (University of Sunderland, priority 2019, published 2022).

In brackets after ≈: the same amount, converted by molar mass. Where a name gives a salt, the structure may show the parent alone.

The test system of data set [1] is bacteria, yeasts and moulds. Kind of data set: Small scale study of microbial growth in naltrexone solutions. The note with it: for bacterial colony count: after 3 weeks incubation time; for microbial growth: summary b334. Here is the method: This was also evidenced in a small scale study in which the microbial growth in solutions of naltrexone base and naltrexone hydrochloride were compared to a control after being stored for 25 days at 27° C. […] After 48 hours, the bacterial colony count increased to approximately 10^4 CFU/mL in the control sample and to approximately 10^2 CFU/mL in the NTX base sample. […] After 3 weeks incubation time, the bacterial colony count increased to ˜10^5 CFU/mL on the control sample, ˜10^3 CFU/mL for naltrexone base and ˜10^2 CFU/mL for naltrexone hydrochloride. Thus, a longer incubation time was required for growth of microbial colonies in the medicated samples.

For data set [2] the following is noted: tertiary aliphatic nitrogen; cited from earlier work.
The conditions of data set [3]: cited from earlier work.
The nature of data set [4]: Stability study: drug content of hydrogel films after storage (HPLC), shelf life estimate. The class given is physicochemical. As to conditions: 0-6 months, ambient and accelerated. The procedure: The stability of the transdermal patch of the invention may be investigated over the course of 6 months under ambient (20.9±0.6° C./43±2.5% RH) and accelerated (40° C./75% RH) conditions. The patches are tested at time intervals of 0, 1, 2, 3 and 6 months to determine the extent of any physical, chemical and microbial changes that may have occurred.
Packaged pouches were either placed under ambient conditions (20.9±0.7° C./46.0±3.1% RH) or under accelerated conditions (40° C./75% RH), for 6 months with intermediate testing at 0, 1, 2, 3 and 6 months according to the protocol in Table 7.
To quantify the amount of drug present at each time point, hydrogel films were removed from each patch (n=3) at 0, 1, 3 and 6 months and dissolved in 5 mL 80% v/v acetonitrile for 16 hours at 30° C. in an Elmasonic S 30 H sonicating water bath (Elma Schmidbauer, Singen, Germany). After 16 hours, the samples were filtered using 0.2 μm Whatman syringeless filters vials with nylon filter media and polypropylene housing (GE Healthcare UK Ltd., Little Chalfont, Buckinghamshire, UK) and injected in triplicate to the HPLC.
Based on the drug content of the hydrogels only, a shelf life may be predicted by extrapolating the data and calculating how long it would take to reach 90% of the stated dose. […]

Data set [5] is described as follows: Differential scanning calorimetry: drug crystallinity and saturation in PEO films. The class given is physicochemical. The note with it: from plot of enthalpy of fusion against drug concentration, y = 0. The procedure: Differential scanning calorimetry (DSC) of NTX.base, NTX.HCl, PEO and loaded hydrogel films (irradiated and non-irradiated) may be performed with suitable DSC instruments, such as a DSC Q1000 (TA Instruments, New Castle, Del., USA). The DSC was conditioned for two hours prior to use. Samples (5-10 mg) were accurately weighed using a microbalance (Mettler-Toledo, Greifensee, Switzerland), placed in an aluminium hermetic sample pan and sealed with a hermetic lid (TA Instruments, New Castle, Del., USA). The samples were subjected to standard heat/cool/heat at a rate of 10° C./min, under a constant flow of nitrogen at a rate of 50 mL/min. Suitable settings include the following: • For NTX.base API and NTX.base loaded films, the heat/cool/heat cycle was from −80° C. to 200° C. to −80° C. to 200° C. • NTX.HCl API was heated from −80° C. to 285° C., then cooled to −80° C., and then heated for a second time to 285° C. […]
DSC analysis was performed, in accordance with the method described in the “Assays” part of the present disclosure. […] From the enthalpy of fusion values for NTX.HCl within the films, the saturation solubility of naltrexone hydrochloride within PEO was calculated by plotting enthalpy against drug concentration. […]
Background: Differential scanning calorimetry records heat flow against a reference as temperature is scanned.

Data set [6] deals with bacteria, moulds and yeasts. Kind of data set: Stability study: microbiology of patches (Mikrocount duo dipslides). As to conditions: storage up to 6 months, ambient and accelerated. The procedure:
Mikrocount® duo dipslides (Schulke & Mayr GmbH, Norderstedt, Germany) were used to determine total plate count and to detect presence of moulds and yeasts. The surface of each side of the dipslide was placed in contact with the hydrogel surface of the patch for 5 seconds. The dipslides were then placed in their sealed container and incubated for 72 hours at 27±1° C. Once incubated, the dipslides were compared to images within the Mikrocount® brochure to evaluate the colony forming units per cm^2.

`O=C1CC[C@@]2(O)[C@H]3Cc4ccc(O)c5c4[C@@]2(CCN3CC2CC2)[C@H]1O5` [naltrexone base, 17-(Cyclopropylmethyl)-4,5α-epoxy-3,14-dihydroxymorphinan-6-one]: the yeasts or moulds result in data set [1] (any incubation time point) was “No yeasts or moulds were detected”. Besides, in data set [1] (solutions), the bacterial colony count was ~10^3 CFU/mL and the microbial growth result was “approximately 10^3 CFU/mL”. The pKa in data set [2] is recorded as 8.3. Also, the aqueous solubility in data set [3] is 510 µg/mL (≈ 1490 µM). The “degradation of naltrexone under storage (HPLC chromatograms)” value in data set [4] is recorded as “did not degrade under storage into any other compounds”.

With `O=C1CC[C@@]2(O)[C@H]3Cc4ccc(O)c5c4[C@@]2(CCN3CC2CC2)[C@H]1O5` [naltrexone hydrochloride], in data set [1] (solutions, hydrochloride), the bacterial colony count result is on record as “approximately 10^2 CFU/mL” and the microbial growth result is recorded as “approximately 10^2 CFU/mL”. The bacterial growth entry in data set [1] (solutions, after 72 hours) was “Negligible bacterial growth”. In addition, the “maximum drug loading before crystals are loaded to the film (saturation solubility within PEO)” value in data set [5] is given as 4.40 % w/w.

For `CC(O)CO` (centres unmarked) [propylene glycol], the “microbial growth on patches” value in data set [6] is “prevented bacteria, yeast and mould from growing at all throughout the study”.

The pKa is the pH at which an ionisable group is half protonated. A word on the aqueous solubility: it is the concentration that dissolves in the medium under given conditions.
